# Assay results as given in US7994192B2, “Substituted thienopyridone compounds with antibacterial activity” (Crestone, Inc., priority 2006, dated 2011).
# How the values were obtained:
# C. difficile [1] = test: C. difficile-infected hamster survival study; format: in vivo
# Experimental: Animal studies were performed to determine the efficacy of MetRS inhibitors for treating C. difficile-infections. The MetRS inhibitors tested were 5-[3-((R)-6,8-Dibromo-chroman-4-ylamino)-propylamino]-4H-thieno[3,2-b]pyridine-7-one (both racemic mixture and the R enantiomer) and 5-[3-((R)-8-Bromo-6-chloro-chroman-4-ylamino)-propylamino]-4H-thieno[3,2-b]pyridin-7-one. Also tested was 2-(3-{3,5-Dibromo-2-[2-(4-methyl-thiazol-5-yl)-ethoxy]-benzylamino}-propylamino)-1H-quinolin-4-one.
# Results were compared to C. difficile-infected hamsters treated with the conventional antibiotic, vancomycin. Infected hamsters were treated with either a solution or suspension of a MetRS inhibitor at 5 to 50 mg/kg or vancomycin at 2.5, 5 or 25 mg/kg. There were eight hamsters per group with the final endpoint of the experiment being survival. Expired hamsters were examined for GI condition.
# C. difficile [2] = test: Sporulation of C. difficile clinical isolates on agar containing compound; format: cell-based
structure (smiles),measurement,setting,value
"CN[C@H](CC(C)C)C(=O)N[C@H]1C(=O)N[C@@H](CC(N)=O)C(=O)N[C@H]2C(=O)N[C@H]3C(=O)N[C@H](C(=O)N[C@H](C(=O)O)c4cc(O)cc(O)c4-c4cc3ccc4O)[C@H](O)c3ccc(c(Cl)c3)Oc3cc2cc(c3O[C@@H]2O[C@H](CO)[C@@H](O)[C@H](O)[C@H]2O[C@H]2C[C@](C)(N)[C@H](O)[C@H](C)O2)Oc2ccc(cc2Cl)[C@H]1O [vancomycin, reference compound]",survival on Day 28,"C. difficile [1]; vancomycin treatment, dose not given in the sentence (2.5, 5 or 25 mg/kg used)",0-10%
"O=c1cc(NCCCN[C@@H]2CCOc3c(Br)cc(Br)cc32)[nH]c2ccsc12 [5-[3-((R)-6,8-Dibromo-chroman-4-ylamino)-propylamino]-4H-thieno[3,2-b]pyridine-7-one]",survival on Day 28,C. difficile [1]; 5 mg/kg BID,> 60%
same,efficacy ranking among the MetRS inhibitors tested,"C. difficile [1]; hamster, in vivo",best efficacy
same,spores (share of total cells),"C. difficile [2]; 0.25×MIC, 96 hours, all strains",< 2%
same,spores (share of total cells),"C. difficile [2]; 0.5×MIC, 96 hours, all strains",< 1%
"Cc1ncc([N+](=O)[O-])n1CCO [metronidazole, reference compound]",spores (share of total cells),"C. difficile [2]; subMIC concentrations, all tested strains",up to 100%
